Test results published in patent publication US9216999B2, “Substituted pyrrolo[2,3-h][1,6]naphthyridines and compositions thereof as JAK inhibitors” (priority 2011, dated 2015).
Read-outs that look alike come from different tables or passages of the source.

How the values were obtained:
Format in all cases: biochemical
JAK2 = JAK2 (Homo sapiens (Human), UniProt O60674); assay: Enzyme assay (Assay Example^a 1), JAK2
JAK1 = JAK1 (Homo sapiens (Human), UniProt P23458); assay: Enzyme assay (Assay Example^a 1), JAK1; settings: ATP 100 μM
JAK3 = JAK3 (Homo sapiens (Human), UniProt P52333); assay: Enzyme assay (Assay Example^a 1), JAK3
JAK3, sequence (P52333 whole entry): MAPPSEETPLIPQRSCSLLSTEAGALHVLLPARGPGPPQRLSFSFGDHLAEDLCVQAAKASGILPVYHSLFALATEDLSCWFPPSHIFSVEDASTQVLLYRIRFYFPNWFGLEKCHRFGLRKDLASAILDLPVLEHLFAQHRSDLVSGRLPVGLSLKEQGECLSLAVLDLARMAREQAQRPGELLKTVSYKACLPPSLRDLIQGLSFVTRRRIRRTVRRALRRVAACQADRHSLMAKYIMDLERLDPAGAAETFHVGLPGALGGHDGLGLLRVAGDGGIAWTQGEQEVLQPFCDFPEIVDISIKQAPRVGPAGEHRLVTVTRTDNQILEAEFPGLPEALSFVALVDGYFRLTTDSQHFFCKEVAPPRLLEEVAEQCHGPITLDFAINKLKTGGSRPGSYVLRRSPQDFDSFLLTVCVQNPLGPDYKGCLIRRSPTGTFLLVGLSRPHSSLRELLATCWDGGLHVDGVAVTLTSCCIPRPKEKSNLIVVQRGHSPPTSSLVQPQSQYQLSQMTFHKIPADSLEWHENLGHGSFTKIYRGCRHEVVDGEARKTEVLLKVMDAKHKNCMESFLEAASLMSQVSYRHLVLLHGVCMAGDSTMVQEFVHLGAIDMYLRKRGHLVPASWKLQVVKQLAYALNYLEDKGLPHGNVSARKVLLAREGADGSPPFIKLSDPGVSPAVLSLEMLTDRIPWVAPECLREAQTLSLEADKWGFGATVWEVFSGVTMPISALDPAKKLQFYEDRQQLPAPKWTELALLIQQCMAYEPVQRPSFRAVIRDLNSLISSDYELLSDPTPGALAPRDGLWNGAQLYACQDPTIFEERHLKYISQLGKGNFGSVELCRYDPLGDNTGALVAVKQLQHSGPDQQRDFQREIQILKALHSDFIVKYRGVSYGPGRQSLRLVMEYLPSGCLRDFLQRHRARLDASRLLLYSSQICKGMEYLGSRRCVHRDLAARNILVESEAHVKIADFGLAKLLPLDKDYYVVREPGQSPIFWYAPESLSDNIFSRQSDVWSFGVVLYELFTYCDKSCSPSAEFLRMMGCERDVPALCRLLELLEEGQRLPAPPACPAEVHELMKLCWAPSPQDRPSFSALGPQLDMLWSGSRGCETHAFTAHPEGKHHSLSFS

Tyk2 = Tyk2 (Homo sapiens (Human), UniProt P29597); assay: Enzyme assay (Assay Example^a 1), Tyk2; settings: ATP 100 μM
Tyk2, sequence (P29597 whole entry): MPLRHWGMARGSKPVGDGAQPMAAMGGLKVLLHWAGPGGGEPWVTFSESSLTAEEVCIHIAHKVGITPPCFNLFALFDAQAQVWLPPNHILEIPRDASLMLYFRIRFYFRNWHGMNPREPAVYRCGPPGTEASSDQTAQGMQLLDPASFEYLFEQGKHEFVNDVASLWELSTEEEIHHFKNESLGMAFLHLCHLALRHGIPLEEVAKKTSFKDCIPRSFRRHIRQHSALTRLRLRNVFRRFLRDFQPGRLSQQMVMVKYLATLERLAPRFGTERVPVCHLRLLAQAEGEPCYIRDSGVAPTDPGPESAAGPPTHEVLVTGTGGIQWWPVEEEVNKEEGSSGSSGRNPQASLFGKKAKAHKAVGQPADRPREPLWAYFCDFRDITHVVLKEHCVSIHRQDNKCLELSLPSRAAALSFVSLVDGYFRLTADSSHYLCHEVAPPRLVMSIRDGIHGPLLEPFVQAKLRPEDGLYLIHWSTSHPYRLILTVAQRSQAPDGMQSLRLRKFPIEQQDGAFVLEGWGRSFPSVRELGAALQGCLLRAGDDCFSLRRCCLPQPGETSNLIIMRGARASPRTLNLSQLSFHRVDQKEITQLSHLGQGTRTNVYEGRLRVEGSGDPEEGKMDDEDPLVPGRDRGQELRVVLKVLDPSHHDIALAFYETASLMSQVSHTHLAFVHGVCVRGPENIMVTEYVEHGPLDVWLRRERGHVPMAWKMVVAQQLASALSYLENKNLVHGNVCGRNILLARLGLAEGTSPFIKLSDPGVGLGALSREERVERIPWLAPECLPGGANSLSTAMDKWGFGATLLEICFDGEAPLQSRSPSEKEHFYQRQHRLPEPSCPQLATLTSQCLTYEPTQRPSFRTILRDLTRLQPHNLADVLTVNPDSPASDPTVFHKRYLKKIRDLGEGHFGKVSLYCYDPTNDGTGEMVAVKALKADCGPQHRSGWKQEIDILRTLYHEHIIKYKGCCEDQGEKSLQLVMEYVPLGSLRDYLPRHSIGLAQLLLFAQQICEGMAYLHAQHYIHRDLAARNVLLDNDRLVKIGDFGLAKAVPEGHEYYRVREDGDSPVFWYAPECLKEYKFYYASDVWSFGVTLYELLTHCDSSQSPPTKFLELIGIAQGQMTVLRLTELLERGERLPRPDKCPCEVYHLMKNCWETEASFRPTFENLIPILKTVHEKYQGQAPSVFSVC

Compound | IC50 (JAK2; ATP 100 μM) | IC50 (JAK1) | IC50 (JAK3; ATP 100 μM) | IC50 (Tyk2) | IC50 (JAK2; ATP 100 μM, Table^a 154) | IC50 (JAK1; Table^a 154) | IC50 (JAK3; ATP 100 μM, Table^a 154) | IC50 (Tyk2; Table^a 154) | IC50 (JAK2) | IC50 (JAK3)
O[C@H]1Cc2ccccc2[C@H]1NC1CCC(c2nnn3cnc4[nH]ccc4c23)CC1 (mixture of isomers) [compound 378, (1R,2S)-1-{[4-(7H-pyrrolo[3,2-e][1,2,3]triazolo[1,5-c]pyrimidin-1-yl)cyclohexyl]amino}-2,3-dihydro-1H-inden-2-ol] | 0.071 µM | 0.004 µM | 0.41 µM | 0.2 µM |  |  |  |  |  | 
O[C@@H]1Cc2ccccc2[C@@H]1NC1CCC(c2nnn3cnc4[nH]ccc4c23)CC1 (mixture of isomers) [compound 379, (1S,2R)-1-{[4-(7H-pyrrolo[3,2-e][1,2,3]triazolo[1,5-c]pyrimidin-1-yl)cyclohexyl]amino}-2,3-dihydro-1H-inden-2-ol] | 0.11 µM | 0.013 µM | 0.66 µM | 0.29 µM |  |  |  |  |  | 
O=C(CC(F)(F)F)N1CCCC(c2nnn3cnc4[nH]ccc4c23)C1 (racemic) [compound 17] |  |  |  |  | 0.076 µM | 0.029 µM | 2.1 µM | 0.57 µM |  | 
Cc1cc(NC(=O)N2CCCC(c3nnn4cnc5[nH]ccc5c34)C2)sn1 (racemic) [compound 21] |  |  |  |  | 0.11 µM | 0.015 µM | 0.9 µM | 0.71 µM |  | 
CC(NC[C@H]1CC[C@H](c2nnn3cnc4[nH]ccc4c23)CC1)c1ccc(F)c(F)c1 (mixture of isomers) [compound 109] |  |  |  |  | 0.011 µM | 0.0016 µM | 0.16 µM | 0.072 µM |  | 
OC(CNC[C@H]1CC[C@H](c2nnn3cnc4[nH]ccc4c23)CC1)(c1ccccc1)C(F)(F)F (mixture of isomers) [compound 172, 3-({[trans-4-(7H-pyrrolo[3,2-e][1,2,3]triazolo[1,5-c]pyrimidin-1-yl)cyclohexyl]methyl}amino)-1,1,1-trifluoro-2-phenylpropan-2-ol] |  |  |  |  | 0.093 µM | 0.013 µM |  | 0.63 µM |  | 
Fc1ccc([C@@H]2C[C@H]2CN[C@H]2CC[C@H](c3nnn4cnc5[nH]ccc5c34)CC2)cc1 (relative stereo) [389b, trans-N-{[trans-2-(4-fluorophenyl)cyclopropyl]methyl}-4-(7H-pyrrolo[3,2-e][1,2,3]triazolo[1,5-c]pyrimidin-1-yl)cyclohexanamine] | 0.14 µM | 0.0079 µM | > 1 µM | 0.67 µM |  |  |  |  |  | 
O[C@H]1CCCC[C@H]1CNC[C@H]1CC[C@H](c2nnn3cnc4[nH]ccc4c23)CC1 (relative stereo) [compound 312, cis-2-[({[trans-4-(7H-pyrrolo[3,2-e][1,2,3]triazolo[1,5-c]pyrimidin-1-yl)cyclohexyl]methyl}amino)methyl]cyclohexanol] | 0.045 µM | 0.012 µM | > 1 µM | 0.37 µM |  |  |  |  |  | 
FC(F)(F)C1CCC(N2CCC(c3nnn4cnc5[nH]ccc5c34)CC2)CC1 (single isomer, unassigned) [56a] |  |  |  |  | > 1 µM | 0.5 µM | > 1 µM | > 1 µM |  | 
FC(F)(F)C1CCC(N2CCC(c3nnn4cnc5[nH]ccc5c34)CC2)CC1 (single isomer, unassigned) [56b] |  |  |  |  | 0.6 µM | 0.035 µM | > 1 µM | > 1 µM |  | 
c1ccc(CCCN[C@H]2CC[C@@H](c3nnn4cnc5[nH]ccc5c34)CC2)cc1 [136a] |  |  |  |  | > 1 µM | 0.14 µM | > 1 µM | > 1 µM |  | 
c1ccc(CCCN[C@H]2CC[C@H](c3nnn4cnc5[nH]ccc5c34)CC2)cc1 [136b] |  |  |  |  | 0.29 µM | 0.016 µM | > 1 µM | 0.45 µM |  | 
N#Cc1ccc(CN[C@H]2CC[C@@H](c3nnn4cnc5[nH]ccc5c34)CC2)cc1 [137a] |  |  |  |  | 0.49 µM | 0.032 µM | > 1 µM | 0.31 µM |  | 
N#Cc1ccc(CN[C@H]2CC[C@H](c3nnn4cnc5[nH]ccc5c34)CC2)cc1 [137b] |  |  |  |  | 0.039 µM | 0.0041 µM | 0.38 µM | 0.088 µM |  | 
FC(F)(F)c1ccc(CN[C@H]2CC[C@@H](c3nnn4cnc5[nH]ccc5c34)CC2)cc1 [138a] |  |  |  |  | 0.74 µM | 0.023 µM | > 1 µM | 0.25 µM |  | 
FC(F)(F)c1ccc(CN[C@H]2CC[C@H](c3nnn4cnc5[nH]ccc5c34)CC2)cc1 [138b] |  |  |  |  | 0.043 µM | 0.0043 µM | 0.4 µM | 0.046 µM |  | 
c1cc2c(ncn3nnc([C@H]4CC[C@@H](NN5CCOCC5)CC4)c23)[nH]1 [139a] |  |  |  |  | 0.4 µM | 0.26 µM | 0.43 µM | > 1 µM |  | 

Compound | IC50 (JAK2; ATP 100 μM) | IC50 (JAK1) | IC50 (JAK3; ATP 100 μM) | IC50 (Tyk2) | IC50 (JAK2; ATP 100 μM, Table^a 154) | IC50 (JAK1; Table^a 154) | IC50 (JAK3; ATP 100 μM, Table^a 154) | IC50 (Tyk2; Table^a 154) | IC50 (JAK2) | IC50 (JAK3)
c1cc2c(ncn3nnc([C@H]4CC[C@H](NN5CCOCC5)CC4)c23)[nH]1 [139b] |  |  |  |  | 0.076 µM | 0.021 µM | > 1 µM | 0.5 µM |  | 
c1ccc(CN[C@H]2CC[C@@H](c3nnn4cnc5[nH]ccc5c34)CC2)cc1 [194a, cis-N-benzyl-4-(7H-pyrrolo[3,2-e][1,2,3]triazolo[1,5-c]pyrimidin-1-yl)cyclohexanamine] |  |  |  |  | 0.74 µM | 0.032 µM | > 1 µM | 0.33 µM |  | 
c1ccc(CN[C@H]2CC[C@H](c3nnn4cnc5[nH]ccc5c34)CC2)cc1 [194b, trans-N-benzyl-4-(7H-pyrrolo[3,2-e][1,2,3]triazolo[1,5-c]pyrimidin-1-yl)cyclohexanamine] |  |  |  |  | 0.046 µM | 0.0084 µM | 0.5 µM | 0.11 µM |  | 
Fc1ccc(CN[C@H]2CC[C@@H](c3nnn4cnc5[nH]ccc5c34)CC2)cc1 [195a, cis-N-(4-fluorobenzyl)-4-(7H-pyrrolo[3,2-e][1,2,3]triazolo[1,5-c]pyrimidin-1-yl)cyclohexanamine] |  |  |  |  | 0.55 µM | 0.03 µM | > 1 µM | 0.31 µM |  | 
Fc1ccc(CN[C@H]2CC[C@H](c3nnn4cnc5[nH]ccc5c34)CC2)cc1 [195b, trans-N-(4-fluorobenzyl)-4-(7H-pyrrolo[3,2-e][1,2,3]triazolo[1,5-c]pyrimidin-1-yl)cyclohexanamine] |  |  |  |  | 0.042 µM | 0.007 µM | 0.56 µM | 0.12 µM |  | 
Clc1ccc(CCN[C@H]2CC[C@H](c3nnn4cnc5[nH]ccc5c34)CC2)cc1 [198b, trans-N-(4-chlorophenethyl)-4-(7H-pyrrolo[3,2-e][1,2,3]triazolo[1,5-c]pyrimidin-1-yl)cyclohexanamine] |  |  |  |  | 0.037 µM | 0.0025 µM | 0.4 µM | 0.065 µM |  | 
Fc1ccc(CCN[C@H]2CC[C@H](c3nnn4cnc5[nH]ccc5c34)CC2)cc1 [201b, trans-N-(4-fluorophenethyl)-4-(7H-pyrrolo[3,2-e][1,2,3]triazolo[1,5-c]pyrimidin-1-yl)cyclohexanamine] |  |  |  |  | 0.066 µM | 0.0039 µM | 0.41 µM | 0.1 µM |  | 
FC(F)(Br)CN[C@H]1CC[C@@H](c2nnn3cnc4[nH]ccc4c23)CC1 [382a, cis-N-(2-bromo-2,2-difluoroethyl)-4-(7H-pyrrolo[3,2-e][1,2,3]triazolo[1,5-c]pyrimidin-1-yl)cyclohexanamine] |  | 0.015 µM |  | 0.76 µM |  |  |  |  | 0.063 µM | 0.75 µM
FC(F)(Br)CN[C@H]1CC[C@H](c2nnn3cnc4[nH]ccc4c23)CC1 [382b, trans-N-(2-bromo-2,2-difluoroethyl)-4-(7H-pyrrolo[3,2-e][1,2,3]triazolo[1,5-c]pyrimidin-1-yl)cyclohexanamine] |  | 0.00031 µM |  | 0.013 µM |  |  |  |  | 0.0028 µM | 0.07 µM
FC(F)(F)C(F)(F)CN[C@H]1CC[C@@H](c2nnn3cnc4[nH]ccc4c23)CC1 [383a, cis-N-(2,2,3,3,3-pentafluoropropyl)-4-(7H-pyrrolo[3,2-e][1,2,3]triazolo[1,5-c]pyrimidin-1-yl)cyclohexanamine] | 0.37 µM | 0.09 µM | > 1 µM | > 1 µM |  |  |  |  |  | 
FC(F)(F)C(F)(F)CN[C@H]1CC[C@H](c2nnn3cnc4[nH]ccc4c23)CC1 [383b, trans-N-(2,2,3,3,3-pentafluoropropyl)-4-(7H-pyrrolo[3,2-e][1,2,3]triazolo[1,5-c]pyrimidin-1-yl)cyclohexanamine] | 0.013 µM | 0.0015 µM | 0.5 µM | 0.17 µM |  |  |  |  |  | 
O=C(CN[C@H]1CC[C@@H](c2nnn3cnc4[nH]ccc4c23)CC1)NCC(F)(F)F [384a, 2-{[cis-4-(7H-pyrrolo[3,2-e][1,2,3]triazolo[1,5-c]pyrimidin-1-yl)cyclohexyl]amino}-N-(2,2,2-trifluoroethyl)acetamide] | 0.56 µM | 0.087 µM | > 1 µM | > 1 µM |  |  |  |  |  | 
O=C(CN[C@H]1CC[C@H](c2nnn3cnc4[nH]ccc4c23)CC1)NCC(F)(F)F [384b, 2-{[trans-4-(7H-pyrrolo[3,2-e][1,2,3]triazolo[1,5-c]pyrimidin-1-yl)cyclohexyl]amino}-N-(2,2,2-trifluoroethyl)acetamide] | 0.08 µM | 0.022 µM | > 1 µM | > 1 µM |  |  |  |  |  | 
OC(CN[C@H]1CC[C@H](c2nnn3cnc4[nH]ccc4c23)CC1)(c1cccnc1)C(F)(F)F (stereo partly drawn) [385b, 3-{[trans-4-(7H-pyrrolo[3,2-e][1,2,3]triazolo[1,5-c]pyrimidin-1-yl)cyclohexyl]amino}-1,1,1-trifluoro-2-(pyridin-3-yl)propan-2-ol] | 0.031 µM | 0.0019 µM | 0.18 µM | 0.21 µM |  |  |  |  |  | 
FC1(F)CCC(c2nnn3cnc4[nH]ccc4c23)CC1 [compound 64] |  |  |  |  | 0.12 µM | 0.033 µM |  | 0.31 µM |  | 
c1cc2c(ncn3nnc(C4CCCCCC4)c23)[nH]1 [compound 66] |  |  |  |  | 0.013 µM | 0.0033 µM |  | 0.027 µM |  | 
N#Cc1ccc(NC[C@H]2CC[C@H](c3nnn4cnc5[nH]ccc5c34)CC2)cc1Cl [compound 247, 4-({[trans-4-(7H-pyrrolo[3,2-e][1,2,3]triazolo[1,5-c]pyrimidin-1-yl)cyclohexyl]methyl}amino)-2-chlorobenzonitrile] | 0.09 µM | 0.013 µM |  | > 1 µM |  |  |  |  |  | 
